Laboratory results: patent US6355799B1, “Substituted benzene compounds, process for their preparation, and herbicidal and defoliant compositions containing them” (ISK Americas Incorporated, priority 1997, dated 2002)

Key:
Type in all cases: in vivo
[1] = test system: redroot pigweed (Amaranthus retroflexus, AMARE); test: Pre-emerge test, greenhouse herbicide activity screening; conditions: rating scale 0-100, 14 days after application
How it was run: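 Plants grown in 10 cm pots of sandy loam mix received acetone-dissolved compounds through a moving flat-fan nozzle. Doses ranged from 15 to 1000 g ai/ha. Pre-emerge pots were seeded one day earlier, post-emerge pots 8–21 days earlier. Fourteen days on, each pot was graded 0–100 for damage.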

[2] = test system: barnyardgrass (Echinochloa crus-galli, ECHCG); test: as above; conditions: rating scale 0-100, 14 days after application
How it was run: (§1)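 Compounds in acetone were track-sprayed at 15–1000 g ai/ha: pre-emergence onto soil sown the previous day, then top-watered to incorporate and later bottom-watered; post-emergence onto 2–3 leaf plants with 0.25% v/v surfactant, bottom-watered only. Ratings on a 0–100 phytotoxicity scale were taken at day 14.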

[3] = test system: green foxtail (Setaria viridis, SETVI); test: as above; conditions: rating scale 0-100, 14 days after application
How it was run: as §1

[4] = test system: ivyleaf morningglory (Ipomoea hederacea, IPOHE); test: as above; conditions: rating scale 0-100, 14 days after application
How it was run: as §1

[5] = test system: johnsongrass (Sorghum halepense, SORHA); test: as above; conditions: rating scale 0-100, 14 days after application
How it was run: as §1

[6] = test system: lambsquarters (Chenopodium album, CHEAL); test: as above; conditions: rating scale 0-100, 14 days after application
How it was run: as §1

[7] = test system: large crabgrass (Digitaria sanguinalis, DIGSA); test: as above; conditions: rating scale 0-100, 14 days after application
How it was run: as §1

[8] = test system: sicklepod (Cassia obtusifolia, CASOB); test: as above; conditions: rating scale 0-100, 14 days after application
How it was run: as §1

[9] = test system: velvetleaf (Abutilon theophrasti, ABUTH); test: as above; conditions: rating scale 0-100, 14 days after application
How it was run: as §1

[10] = test system: field corn (Zea mays L., var. Dekalb 535, CORN); test: Pre-emerge test, crop safety; conditions: rating scale 0-100, 14 days after application
How it was run: (§2)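 Sandy loam pots; pre-emerge: sown 1 d pre-spray, surface-watered after, then bottom-watered. Post-emerge: sown 8–21 d before, 2–3 leaf stage, + 0.25% v/v NIS, bottom-watered. Acetone, 187 l/ha track spray, 15–1000 g ai/ha. 0–100 injury score, day 14.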

[11] = test system: upland rice (Oryza sp., var. Tebonnet, RICE); test: Pre-emerge test, crop safety; conditions: rating scale 0-100, 14 days after application
How it was run: as §2

[12] = test system: barnyardgrass (Echinochloa crus-galli, ECHCG); test: Post-emerge test, greenhouse herbicide activity screening; conditions: rating scale 0-100 (0 no damage, 100 complete death), 14 days after application
How it was run: as §1

[13] = test system: common ragweed (Ambrosia artemisizfolia L., AMBEL); test: as above; conditions: rating scale 0-100 (0 no damage, 100 complete death), 14 days after application
How it was run: as §1

[14] = test system: green foxtail (Setaria viridis, SETVI); test: as above; conditions: rating scale 0-100 (0 no damage, 100 complete death), 14 days after application
How it was run: as §1

[15] = test system: ivyleaf morningglory (Ipomoea hederacea, IPOHE); test: as above; conditions: rating scale 0-100 (0 no damage, 100 complete death), 14 days after application
How it was run: as §1

[16] = test system: johnsongrass (Sorghum halepense, SORHA); test: as above; conditions: rating scale 0-100 (0 no damage, 100 complete death), 14 days after application
How it was run: as §1

[17] = test system: lambsquarters (Chenopodium album, CHEAL); test: as above; conditions: rating scale 0-100 (0 no damage, 100 complete death), 14 days after application
How it was run: as §1

[18] = test system: large crabgrass (Digitaria sanguinalis, DIGSA); test: as above; conditions: rating scale 0-100 (0 no damage, 100 complete death), 14 days after application
How it was run: as §1

[19] = test system: redroot pigweed (Amaranthus retroflexus, AMARE); test: as above; conditions: rating scale 0-100 (0 no damage, 100 complete death), 14 days after application
How it was run: as §1

[20] = test system: sicklepod (Cassia obtusifolia, CASOB); test: as above; conditions: rating scale 0-100 (0 no damage, 100 complete death), 14 days after application
How it was run: as §1

[21] = test system: velvetleaf (Abutilon theophrasti, ABUTH); test: as above; conditions: rating scale 0-100 (0 no damage, 100 complete death), 14 days after application
How it was run: as §1

[22] = test system: field corn (Zea mays L., var. Dekalb 535, CORN); test: Post-emerge test, crop safety; conditions: rating scale 0-100 (0 no damage, 100 complete death), 14 days after application
How it was run: (§3)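 Rating: 0–100 visual injury, 14 DAA. Application: acetone, 187 l/ha, 15–1000 g ai/ha, flat-fan track sprayer with nozzle 40–45 cm above soil or canopy. Post-emerge runs used 0.25% v/v surfactant on 2–3 leaf plants.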

[23] = test system: upland rice (Oryza sp., var. Tebonnet, RICE); test: Post-emerge test, crop safety; conditions: rating scale 0-100 (0 no damage, 100 complete death), 14 days after application
How it was run: as §3

CCOC(=O)C(C)(Cl)Cc1c(OC)c(Cl)cc(F)c1-n1c(=O)cc(C(F)(F)F)n(C)c1=O (stereo not shown) [14-34]
Pre-emerge herbicidal activity, phytotoxicity rating AMARE ([1]; 63 g ai/ha): 100
Pre-emerge herbicidal activity, phytotoxicity rating AMARE ([1]; 250 g ai/ha): 100
Pre-emerge herbicidal activity, phytotoxicity rating ECHCG ([2]; 63 g ai/ha): 20
Pre-emerge herbicidal activity, phytotoxicity rating ECHCG ([2]; 250 g ai/ha): 90
Pre-emerge herbicidal activity, phytotoxicity rating SETVI ([3]; 63 g ai/ha): 30
Pre-emerge herbicidal activity, phytotoxicity rating SETVI ([3]; 250 g ai/ha): 100
Pre-emerge herbicidal activity, phytotoxicity rating IPOHE ([4]; 63 g ai/ha): 10
Pre-emerge herbicidal activity, phytotoxicity rating IPOHE ([4]; 250 g ai/ha): 10
Pre-emerge herbicidal activity, phytotoxicity rating SORHA ([5]; 63 g ai/ha): 0
Pre-emerge herbicidal activity, phytotoxicity rating SORHA ([5]; 250 g ai/ha): 30
Pre-emerge herbicidal activity, phytotoxicity rating CHEAL ([6]; 63 g ai/ha): 95
Pre-emerge herbicidal activity, phytotoxicity rating CHEAL ([6]; 250 g ai/ha): 100
Pre-emerge herbicidal activity, phytotoxicity rating DIGSA ([7]; 63 g ai/ha): 90
Pre-emerge herbicidal activity, phytotoxicity rating DIGSA ([7]; 250 g ai/ha): 100
Pre-emerge herbicidal activity, phytotoxicity rating CASOB ([8]; 63 g ai/ha): 20
Pre-emerge herbicidal activity, phytotoxicity rating CASOB ([8]; 250 g ai/ha): 10
Pre-emerge herbicidal activity, phytotoxicity rating ABUTH ([9]; 63 g ai/ha): 100
Pre-emerge herbicidal activity, phytotoxicity rating ABUTH ([9]; 250 g ai/ha): 100
Pre-emerge phytotoxicity rating, crop damage CORN ([10]; 63 g ai/ha): 0
Pre-emerge phytotoxicity rating, crop damage CORN ([10]; 250 g ai/ha): 25
Pre-emerge phytotoxicity rating, crop damage RICE ([11]; 63 g ai/ha): 20
Pre-emerge phytotoxicity rating, crop damage RICE ([11]; 250 g ai/ha): 90
Post-emerge Herbicidal Activity, phytotoxicity rating ECHCG ([12]; Rate 63 g ai/ha): 100
Post-emerge Herbicidal Activity, phytotoxicity rating ECHCG ([12]; Rate 250 g ai/ha): 100
Post-emerge Herbicidal Activity, phytotoxicity rating AMBEL ([13]; Rate 63 g ai/ha): 40
Post-emerge Herbicidal Activity, phytotoxicity rating AMBEL ([13]; Rate 250 g ai/ha): 100
Post-emerge Herbicidal Activity, phytotoxicity rating SETVI ([14]; Rate 63 g ai/ha): 100
Post-emerge Herbicidal Activity, phytotoxicity rating SETVI ([14]; Rate 250 g ai/ha): 100
Post-emerge Herbicidal Activity, phytotoxicity rating IPOHE ([15]; Rate 63 g ai/ha): 60
Post-emerge Herbicidal Activity, phytotoxicity rating IPOHE ([15]; Rate 250 g ai/ha): 90
Post-emerge Herbicidal Activity, phytotoxicity rating SORHA ([16]; Rate 63 g ai/ha): 60
Post-emerge Herbicidal Activity, phytotoxicity rating SORHA ([16]; Rate 250 g ai/ha): 80
Post-emerge Herbicidal Activity, phytotoxicity rating CHEAL ([17]; Rate 63 g ai/ha): 100
Post-emerge Herbicidal Activity, phytotoxicity rating CHEAL ([17]; Rate 250 g ai/ha): 100
Post-emerge Herbicidal Activity, phytotoxicity rating DIGSA ([18]; Rate 63 g ai/ha): 70
Post-emerge Herbicidal Activity, phytotoxicity rating DIGSA ([18]; Rate 250 g ai/ha): 99
Post-emerge Herbicidal Activity, phytotoxicity rating AMARE ([19]; Rate 63 g ai/ha): 100
Post-emerge Herbicidal Activity, phytotoxicity rating AMARE ([19]; Rate 250 g ai/ha): 100
Post-emerge Herbicidal Activity, phytotoxicity rating CASOB ([20]; Rate 63 g ai/ha): 40
Post-emerge Herbicidal Activity, phytotoxicity rating CASOB ([20]; Rate 250 g ai/ha): 100
Post-emerge Herbicidal Activity, phytotoxicity rating ABUTH ([21]; Rate 63 g ai/ha): 99
Post-emerge Herbicidal Activity, phytotoxicity rating ABUTH ([21]; Rate 250 g ai/ha): 100
Post-emerge phytotoxicity rating CORN (crop damage) ([22]; Rate 63 g ai/ha): 80
Post-emerge phytotoxicity rating CORN (crop damage) ([22]; Rate 250 g ai/ha): 100
Post-emerge phytotoxicity rating RICE (crop damage) ([23]; Rate 63 g ai/ha): 25
Post-emerge phytotoxicity rating RICE (crop damage) ([23]; Rate 250 g ai/ha): 70
